The values that follow come from patent US8299021B2, “Macrocyclic inhibitors of hepatitis C virus replication” (InterMune, Inc., priority 2005, dated 2012).

As a reminder, the IC50 is the concentration at which inhibition is half-maximal.

Bounds are passed on as bounds.

The first experiment deals with T1, NS3-NS4 protease (full-length NS3/NS4A-2) (Hepatitis C virus genotype 1a, UniProt P27958).
T1 construct: Recombinant E. coli or Baculovirus full-length NS3 was diluted to 3.33 μM with assay buffer; made in house; host or cells: E. coli or baculovirus (insect cells)
T1 sequence (P27958 1027-1657): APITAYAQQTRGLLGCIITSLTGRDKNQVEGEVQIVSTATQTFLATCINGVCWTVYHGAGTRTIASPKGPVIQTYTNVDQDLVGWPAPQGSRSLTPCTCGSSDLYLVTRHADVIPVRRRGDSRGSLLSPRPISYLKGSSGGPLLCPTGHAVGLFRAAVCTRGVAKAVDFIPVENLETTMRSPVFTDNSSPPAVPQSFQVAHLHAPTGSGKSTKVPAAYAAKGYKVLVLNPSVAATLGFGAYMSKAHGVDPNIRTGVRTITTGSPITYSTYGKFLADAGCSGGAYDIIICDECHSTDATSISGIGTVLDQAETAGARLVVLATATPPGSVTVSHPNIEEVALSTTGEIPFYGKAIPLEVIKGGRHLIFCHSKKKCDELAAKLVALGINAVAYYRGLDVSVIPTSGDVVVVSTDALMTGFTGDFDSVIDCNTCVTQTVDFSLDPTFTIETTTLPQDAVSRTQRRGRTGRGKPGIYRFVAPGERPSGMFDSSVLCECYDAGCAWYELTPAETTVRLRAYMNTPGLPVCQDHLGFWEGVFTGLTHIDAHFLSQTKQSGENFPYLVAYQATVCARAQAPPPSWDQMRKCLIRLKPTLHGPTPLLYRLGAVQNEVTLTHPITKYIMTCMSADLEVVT
Nature of the experiment: NS3-NS4 protease assay / NS3 inhibition assay (RETS1 substrate, fluorescence kinetic read). It is filed as biochemical. The settings on record: Table 22; read-out: NS3-NS4 IC50. The procedure: NS3 complex formation with NS4A-2.
The appropriate amount of NS4A-2 to 8.3 mM in assay buffer was added to equal the volume of NS3 in step 2.1.1 (conversion factor—3.8 mg/272 μL assay buffer). The material was transferred to an eppendorf tube and place in water bath in 4° C. refrigerator.
After equilibration to 4° C., equal volumes of NS3 and NS4A-2 solutions were combined in an eppendorf tube, mix gently with a manual pipettor, and incubate mixture for 15 minutes in the 4° C. water bath.
After 15 minutes at 4° C., the NS3/NS4A-2 eppendorf tube was removed and place it in a room temperature water bath for 10 minutes. NS3/NS4A-2 was alliquoted at appropriate volumes and store at −80° C. (E. coli NS3 run at 2 nM in assay, aliquot at 25 μL. BV NS3 run at 3 nM in assay, aliquot at 30 μL).
Sample compounds were dissolved to 10 mM in DMSO then diluted to 2.5 mM (1:4) in DMSO.
The E. coli. […] Using the manual multichannel pipettor, careful not to introduce bubbles into the plate, add 50 μL assay buffer to wells A01-H01 of a black Costar 96-well polypropylene storage plate.
Using the manual multichannel pipettor, careful not to introduce bubbles into the plate, add 50 μL of diluted NS3/NS4A-2 from step 2.2.6 to wells A02-H12 of plate in step 2.2.7. Using the manual multichannel pipettor, careful not to introduce bubbles into the plate, transfer 25 μL of the wells in drug dilution plate in step 2.2.5 to corresponding wells in assay plate in step 2.2.8. Change tips on multichannel pipettor for each row of compounds transferred. Using the manual multichannel pipettor, careful not to introduce bubbles into the plate, mix the wells from the assay plate in step 2.2.9 by aspirating and dispensing 35 μL of the 75 μL in each well five times. Change tips on multichannel pipettor for each row of wells mixed. Cover plate with a polystyrene plate lid and pre-incubate the plate from step 2.2.10 containing NS3 protease and sample compounds 10 minutes at room temperature. While plate from step 2.2.11 is pre-incubating, dilute RETS1 substrate in a 15 mL polypropylene centrifuge tube.
After the plate in step is done pre-incubating, and using the manual multichannel, add 25 μL of substrate to all wells on the plate. Quickly mix the plate as in step 2.2.10, mixing 65 μL of the 100 μL in the wells.
Read the plate in kinetic mode on the Molecular Devices SpectraMax
IC50s are determined using a four parameter curve fit equation, and converted to Ki's using the following Km's:
where Ki=IC50/(1+[S]/Km))
For the compound `CC(C)(C)OC(=O)N[C@H]1CCCCC/C=C\[C@@H]2C[C@@]2(C(=O)NC#N)NC(=O)[C@@H]2CCCN2C1=O` [Compound 2306], the half-inhibitory concentration (IC50) was under 1000 nM.

`CC(C)(C)OC(=O)N[C@H]1CCCCC/C=C\[C@@H]2C[C@@]2(C(=O)NCc2ccccc2)NC(=O)[C@@H]2CCCN2C1=O` [Compound 2307]: the IC50 was under 1000 nM.

Turning to `CC(C)(C)OC(=O)N[C@H]1CCCCC/C=C\[C@@H]2C[C@@]2(C(=O)NCc2ccc(Cl)cc2)NC(=O)[C@@H]2CCCN2C1=O` [Compound 2308], the half-maximal inhibitory concentration (IC50) was under 1000 nM.

Consider `CC(C)(C)OC(=O)N[C@H]1CCCCC/C=C\[C@@H]2C[C@@]2(C(=O)Nc2ccccc2Cl)NC(=O)[C@@H]2CCCN2C1=O` [Compound 2309], for which the IC50 is under 1000 nM.

For the compound `CC(C)(C)OC(=O)N[C@H]1CCCCC/C=C\[C@@H]2C[C@@]2(C(=O)NCc2cccc(C(=O)O)c2)NC(=O)[C@@H]2CCCN2C1=O` [Compound 2310], the concentration for half-maximal inhibition (IC50) was under 1000 nM.

As for `C[C@@H](NC(=O)[C@@]12C[C@H]1/C=C\CCCCC[C@H](NC(=O)OC(C)(C)C)C(=O)N1CCC[C@H]1C(=O)N2)c1ccccc1` [Compound 2311], the IC50 is under 1000 nM.

As for `COc1cccc(NC(=O)[C@@]23C[C@H]2/C=C\CCCCC[C@H](NC(=O)OC(C)(C)C)C(=O)N2CCC[C@H]2C(=O)N3)c1` [Compound 2312], the IC50 is under 1000 nM.

Still in this experiment, the particulars now being: Table 25; read-out: NS3-NS4 IC50.
`Cc1ccc([S@+]([O-])NC(=O)[C@@]23C[C@H]2/C=C\CCCCC[C@H](NC(=O)OC(C)(C)C)C(=O)N2C[C@H](OC(=O)N4Cc5ccccc5C4)C[C@H]2C(=O)N3)cc1` [Compound 2602]: the IC50 is under 10000 nM.

With `Cc1ccc([S+]([O-])NC(=O)C23CC2C=CCCCCCC(NC(=O)OC(C)(C)C)C(=O)N2CC(OC(=O)N4Cc5ccccc5C4)CC2C(=O)N3)cc1` (stereo not shown) [Compound 2603], the IC50 is under 10000 nM.

Staying with this experiment, now noted: read-out: NS3-NS4 IC50.
As for “Cyclopentyl (1aR,9S,19aR)-15-(3-chlorophenoxy)-10,18-dioxo-19a-(phenylsulfonylcarbamoyl)-1a,2,3,4,5,6,7,8,9,10,12,17,17a,18,19,19a-hexadecahydro-1H-2,5-diaza-bicyclo[13.1.0]hexadec-1(15)-eno[5,4-b]isoquinolin-9-ylcarbamate [Compound 2010]”, the IC50 was under 10000 nM.
